Four compounds from publication PMC6789782, “Safety Pharmacological Evaluation of the Coffee Component, Caffeoylquinic Acid, and Its Metabolites, Using Ex Vivo and In Vitro Profiling Assays” (Pharmaceuticals, 2019) can be followed below.

The term inhibition denotes the drop in the measured response relative to a control, in per cent. In general, % Inhibition refers to the change of the read-out against control, counted positive when it falls.

Molecules are shown by their SMILES. Read-outs that look alike come from different tables or passages of the source.

The target of one experiment is Cyclooxygenase COX-1 (Homo sapiens, UniProt P23219). The experiment in a line: In vitro profiling, functional assay. Type of experiment: biochemical. The method, then: (§1) Binding and functional assays of CGAs with the proteins known to be pharmacological targets related to the CVS, CNS, and GI functions were conducted. […] In the binding assay, we measured the radiation activity of the solution containing filtered proteins that bound to the tested compound or high-affinity ligand, while in the functional assays, we measured the reaction product. The ability of the test compound to interact with the tested targets was measured as the inhibition of ligand binding to the target or reaction product production (% inhibition).
Sequence of Cyclooxygenase COX-1 (P23219 24-599): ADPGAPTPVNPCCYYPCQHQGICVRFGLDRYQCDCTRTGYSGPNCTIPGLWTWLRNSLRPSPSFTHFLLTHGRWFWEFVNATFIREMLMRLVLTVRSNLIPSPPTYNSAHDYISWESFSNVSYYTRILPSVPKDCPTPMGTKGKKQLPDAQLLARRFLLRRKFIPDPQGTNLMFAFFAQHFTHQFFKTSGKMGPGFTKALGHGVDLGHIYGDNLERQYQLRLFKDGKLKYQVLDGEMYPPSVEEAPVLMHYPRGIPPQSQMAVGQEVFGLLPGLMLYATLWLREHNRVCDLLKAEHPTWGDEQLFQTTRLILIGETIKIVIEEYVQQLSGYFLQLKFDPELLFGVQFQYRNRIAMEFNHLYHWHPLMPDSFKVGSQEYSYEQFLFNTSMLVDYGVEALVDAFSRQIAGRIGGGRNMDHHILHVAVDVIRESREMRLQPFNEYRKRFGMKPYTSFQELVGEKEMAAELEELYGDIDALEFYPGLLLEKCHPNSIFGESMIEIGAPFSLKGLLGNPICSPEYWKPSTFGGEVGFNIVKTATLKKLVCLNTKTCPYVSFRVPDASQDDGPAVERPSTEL

A further experiment has as its target T1, Cyclooxygenase COX-2 (Homo sapiens, UniProt P35354).
T1 sequence (P35354 18-604): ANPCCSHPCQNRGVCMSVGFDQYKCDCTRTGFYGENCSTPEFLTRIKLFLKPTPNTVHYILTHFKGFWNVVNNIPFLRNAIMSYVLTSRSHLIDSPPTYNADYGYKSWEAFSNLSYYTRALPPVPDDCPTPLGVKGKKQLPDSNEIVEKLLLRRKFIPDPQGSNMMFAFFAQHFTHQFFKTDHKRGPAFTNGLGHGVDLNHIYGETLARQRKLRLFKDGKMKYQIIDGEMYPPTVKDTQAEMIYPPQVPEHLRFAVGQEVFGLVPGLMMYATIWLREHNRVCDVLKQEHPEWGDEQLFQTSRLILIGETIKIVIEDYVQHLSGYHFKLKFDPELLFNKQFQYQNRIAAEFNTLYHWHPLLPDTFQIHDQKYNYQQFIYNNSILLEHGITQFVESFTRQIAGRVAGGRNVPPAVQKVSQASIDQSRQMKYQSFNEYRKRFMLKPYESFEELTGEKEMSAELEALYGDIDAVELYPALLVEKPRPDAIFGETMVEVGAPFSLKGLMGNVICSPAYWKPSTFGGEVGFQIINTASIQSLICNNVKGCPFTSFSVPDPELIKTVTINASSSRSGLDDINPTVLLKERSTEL
The experiment in a line: In vitro profiling, functional assay. It is filed as biochemical. Here is the method: as §1

For a further experiment, the target named is T2, Monoamine Oxidase MAO-A (Homo sapiens, UniProt P21397).
T2 sequence (P21397 1-527): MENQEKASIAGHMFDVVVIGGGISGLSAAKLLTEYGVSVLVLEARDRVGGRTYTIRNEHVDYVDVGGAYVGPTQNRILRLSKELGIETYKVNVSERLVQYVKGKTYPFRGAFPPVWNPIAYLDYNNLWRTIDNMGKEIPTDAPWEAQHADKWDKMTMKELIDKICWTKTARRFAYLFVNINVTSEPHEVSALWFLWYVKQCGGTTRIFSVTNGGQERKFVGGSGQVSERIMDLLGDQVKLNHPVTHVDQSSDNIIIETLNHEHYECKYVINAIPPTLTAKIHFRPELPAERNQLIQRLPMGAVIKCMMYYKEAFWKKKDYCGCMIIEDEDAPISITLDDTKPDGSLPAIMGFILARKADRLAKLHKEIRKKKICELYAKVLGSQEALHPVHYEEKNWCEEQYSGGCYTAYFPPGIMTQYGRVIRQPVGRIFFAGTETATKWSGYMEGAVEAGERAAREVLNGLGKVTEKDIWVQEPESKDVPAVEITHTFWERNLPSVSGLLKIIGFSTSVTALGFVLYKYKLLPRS
The experiment in a line: In vitro profiling, functional assay. Type of experiment: biochemical. Here is the method:
as §1

Experiment [1] deals with T3, Peptidase, CTSG (Cathepsin G) (Homo sapiens, UniProt P08311).
T3 sequence (P08311 21-255): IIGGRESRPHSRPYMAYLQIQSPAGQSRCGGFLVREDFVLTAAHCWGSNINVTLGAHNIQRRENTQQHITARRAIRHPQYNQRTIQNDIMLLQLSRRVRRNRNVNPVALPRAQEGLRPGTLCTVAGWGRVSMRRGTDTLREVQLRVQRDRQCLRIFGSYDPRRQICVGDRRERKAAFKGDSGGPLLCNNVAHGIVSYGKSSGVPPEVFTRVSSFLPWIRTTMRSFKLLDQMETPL
The experiment in a line: In vitro profiling, functional assay. Type of experiment: biochemical. The method, then:
as §1

The target of experiment [2] is Transporter, Norepinephrine (NET) (Homo sapiens, UniProt P23975). The experiment can be described thus: In vitro profiling, binding assay. The method, then: as §1
Sequence of Transporter, Norepinephrine (NET) (P23975 whole entry): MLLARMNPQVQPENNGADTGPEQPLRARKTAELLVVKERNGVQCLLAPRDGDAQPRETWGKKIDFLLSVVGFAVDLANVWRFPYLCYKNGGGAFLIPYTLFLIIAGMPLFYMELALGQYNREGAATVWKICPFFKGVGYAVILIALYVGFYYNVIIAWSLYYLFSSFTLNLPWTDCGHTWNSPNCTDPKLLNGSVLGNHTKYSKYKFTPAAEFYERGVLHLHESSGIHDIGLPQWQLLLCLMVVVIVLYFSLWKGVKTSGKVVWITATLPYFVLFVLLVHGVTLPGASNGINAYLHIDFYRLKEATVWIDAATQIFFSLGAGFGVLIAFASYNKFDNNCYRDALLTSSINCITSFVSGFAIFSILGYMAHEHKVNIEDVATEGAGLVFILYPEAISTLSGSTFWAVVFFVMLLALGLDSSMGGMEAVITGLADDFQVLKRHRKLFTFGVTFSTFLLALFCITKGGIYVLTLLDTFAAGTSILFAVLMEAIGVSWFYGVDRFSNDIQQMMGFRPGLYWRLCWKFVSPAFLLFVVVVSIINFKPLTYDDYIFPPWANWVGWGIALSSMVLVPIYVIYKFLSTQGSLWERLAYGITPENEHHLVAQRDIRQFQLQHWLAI
A further experiment deals with Histamine H2 (Homo sapiens, UniProt P25021). The experiment can be described thus: In vitro profiling, binding assay. The method, then:
as §1

Experiment [3] concerns the target Transporter, Dopamine (DAT) (Homo sapiens, UniProt Q01959). The experiment in a line: In vitro profiling, binding assay. The method, then:
as §1

The next experiment addresses T4, Adrenergic α2A (Homo sapiens, UniProt P08913).
T4 sequence (P08913 1-465): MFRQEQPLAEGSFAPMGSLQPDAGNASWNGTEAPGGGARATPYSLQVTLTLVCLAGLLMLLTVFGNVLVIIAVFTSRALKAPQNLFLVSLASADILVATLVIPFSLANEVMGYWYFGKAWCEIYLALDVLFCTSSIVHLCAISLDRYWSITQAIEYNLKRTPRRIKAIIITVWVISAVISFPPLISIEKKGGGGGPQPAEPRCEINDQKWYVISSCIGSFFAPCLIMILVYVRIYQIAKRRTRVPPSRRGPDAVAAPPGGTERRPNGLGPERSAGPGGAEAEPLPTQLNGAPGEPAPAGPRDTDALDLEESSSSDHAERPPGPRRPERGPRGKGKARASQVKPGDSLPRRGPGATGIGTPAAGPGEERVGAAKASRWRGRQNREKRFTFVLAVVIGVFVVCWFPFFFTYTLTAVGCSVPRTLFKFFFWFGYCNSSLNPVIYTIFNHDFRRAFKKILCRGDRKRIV
The experiment in a line: In vitro profiling, binding assay. The method, then:
as §1

The target in another experiment is T5, Muscarinic M2 (Homo sapiens, UniProt P08172).
T5 sequence (P08172 1-466): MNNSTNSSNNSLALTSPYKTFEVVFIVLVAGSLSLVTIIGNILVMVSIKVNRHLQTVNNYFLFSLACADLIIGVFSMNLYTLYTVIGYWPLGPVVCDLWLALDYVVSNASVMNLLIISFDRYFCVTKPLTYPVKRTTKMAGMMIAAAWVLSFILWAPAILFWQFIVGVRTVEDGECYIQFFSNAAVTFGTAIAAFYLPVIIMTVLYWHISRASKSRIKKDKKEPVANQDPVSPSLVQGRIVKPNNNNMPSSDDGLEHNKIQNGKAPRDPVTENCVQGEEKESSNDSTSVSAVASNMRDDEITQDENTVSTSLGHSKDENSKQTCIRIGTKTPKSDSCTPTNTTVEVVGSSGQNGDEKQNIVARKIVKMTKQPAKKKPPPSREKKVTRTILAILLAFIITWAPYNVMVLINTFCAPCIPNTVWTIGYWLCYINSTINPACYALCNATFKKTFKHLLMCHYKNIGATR
The experiment can be described thus: In vitro profiling, binding assay. The method, then: as §1

The next experiment deals with Vasopressin V1A (Homo sapiens, UniProt P37288). The experiment in a line: In vitro profiling, binding assay. The method, then: as §1
Sequence of Vasopressin V1A (P37288 whole entry): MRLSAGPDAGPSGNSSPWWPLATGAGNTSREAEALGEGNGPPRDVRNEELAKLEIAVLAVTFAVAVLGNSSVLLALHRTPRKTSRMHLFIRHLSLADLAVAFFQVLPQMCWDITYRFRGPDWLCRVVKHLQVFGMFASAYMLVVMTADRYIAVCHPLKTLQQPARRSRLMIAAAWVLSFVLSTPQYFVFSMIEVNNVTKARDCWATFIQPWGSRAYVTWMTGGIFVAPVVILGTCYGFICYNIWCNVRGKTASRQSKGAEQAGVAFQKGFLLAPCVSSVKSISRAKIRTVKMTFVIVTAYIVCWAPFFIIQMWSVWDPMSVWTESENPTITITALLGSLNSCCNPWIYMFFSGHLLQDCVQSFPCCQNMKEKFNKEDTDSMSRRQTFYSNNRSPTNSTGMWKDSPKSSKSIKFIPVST
[4] abbreviates: 30 µM, Cyclooxygenase COX-1, read-out: % Inhibition.
The mark [5] stands for this setting: 30 µM, Monoamine Oxidase MAO-A, read-out: % Inhibition.
The mark [6] stands for this setting: 30 µM, Peptidase, CTSG (Cathepsin G), read-out: % Inhibition.
[7] abbreviates: 30 µM, Transporter, Norepinephrine (NET), read-out: % Inhibition.
Setting [8] is: 30 µM, Histamine H2, read-out: % Inhibition.
[9] abbreviates: 30 µM, Transporter, Dopamine (DAT), read-out: % Inhibition.
The mark [10] stands for this setting: 30 µM, Adrenergic α2A, read-out: % Inhibition.
[11] abbreviates: 30 µM, Muscarinic M2, read-out: % Inhibition.
The mark [12] stands for this setting: 30 µM, Vasopressin V1A, read-out: % Inhibition.

Sequence of Transporter, Dopamine (DAT) (Q01959 whole entry): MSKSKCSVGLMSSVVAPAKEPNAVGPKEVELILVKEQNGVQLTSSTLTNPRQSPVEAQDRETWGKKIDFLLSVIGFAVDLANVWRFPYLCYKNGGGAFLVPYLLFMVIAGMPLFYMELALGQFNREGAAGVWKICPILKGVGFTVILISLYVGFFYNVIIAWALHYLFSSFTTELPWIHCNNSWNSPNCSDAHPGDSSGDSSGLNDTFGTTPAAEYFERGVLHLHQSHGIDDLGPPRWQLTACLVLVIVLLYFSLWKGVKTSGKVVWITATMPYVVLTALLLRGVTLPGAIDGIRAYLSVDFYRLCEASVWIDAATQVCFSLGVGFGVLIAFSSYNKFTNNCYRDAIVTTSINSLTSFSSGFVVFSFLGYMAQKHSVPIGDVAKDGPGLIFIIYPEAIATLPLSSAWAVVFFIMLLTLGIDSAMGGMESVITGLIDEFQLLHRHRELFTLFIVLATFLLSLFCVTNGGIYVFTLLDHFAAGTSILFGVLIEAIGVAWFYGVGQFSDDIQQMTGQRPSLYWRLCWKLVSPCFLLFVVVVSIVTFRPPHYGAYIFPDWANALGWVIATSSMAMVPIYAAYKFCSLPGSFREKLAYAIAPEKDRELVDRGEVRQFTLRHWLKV
Sequence of Histamine H2 (P25021 whole entry): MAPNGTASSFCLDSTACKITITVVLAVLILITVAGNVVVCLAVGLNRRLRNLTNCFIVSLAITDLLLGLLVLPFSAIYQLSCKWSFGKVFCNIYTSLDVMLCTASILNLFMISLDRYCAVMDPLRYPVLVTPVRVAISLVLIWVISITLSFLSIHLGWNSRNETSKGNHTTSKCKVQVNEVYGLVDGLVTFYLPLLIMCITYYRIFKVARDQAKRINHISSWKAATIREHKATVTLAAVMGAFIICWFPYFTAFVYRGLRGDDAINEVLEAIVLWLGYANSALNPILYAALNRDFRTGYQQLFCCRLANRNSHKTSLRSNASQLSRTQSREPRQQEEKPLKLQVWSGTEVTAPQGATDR

For `COc1cc(/C=C/C(=O)O)ccc1O` [FA, ferulic acid], the inhibition at 30 µM at Cyclooxygenase COX-1 is 5%; against Cyclooxygenase COX-2, 14%; against Monoamine Oxidase MAO-A it was 5%; in experiment [1] it was -2%; in [2] it was 2%; at Histamine H2, -5%. Further, the inhibition at 30 µM in [3] was 0%; on Adrenergic α2A it was -2%; at Muscarinic M2 it was 17%; on Vasopressin V1A it was 6%.

For `O=C(O)/C=C/c1ccc(O)c(O)c1` [CA, caffeic acid], the inhibition at 30 µM is 6% against Cyclooxygenase COX-1, 9% against Cyclooxygenase COX-2 and 0% against Monoamine Oxidase MAO-A. The “% Inhibition” value in experiment [1] (30 µM, Peptidase, CTSG (Cathepsin G)) is 1%; in [2] (30 µM, Transporter, Norepinephrine (NET)), 0%; at Histamine H2 (30 µM, Histamine H2), −6%; in experiment [3] (30 µM, Transporter, Dopamine (DAT)), 2%; on Adrenergic α2A (30 µM, Adrenergic α2A), −4%; at Muscarinic M2 (30 µM, Muscarinic M2), 23%. On Vasopressin V1A (30 µM, Vasopressin V1A), the “% Inhibition” value was found to be 9%.

Take `COc1cc(/C=C/C(=O)O[C@H]2C[C@@](O)(C(=O)O)C[C@H](O)[C@@H]2O)ccc1O` [5-FQA, 5-O-feruloylquinic acid]: the inhibition at 30 µM at Cyclooxygenase COX-1 (setting [4]) was 11%; on Cyclooxygenase COX-2 (30 µM, Cyclooxygenase COX-2, read-out: % Inhibition), 18%; on Monoamine Oxidase MAO-A (setting [5]) it was 0%; in [1] (setting [6]), 2%; in experiment [2] (setting [7]), -1%; at Histamine H2 (setting [8]), -5%. The inhibition at 30 µM in experiment [3] (setting [9]) is 6%; on Adrenergic α2A (setting [10]), -3%; at Muscarinic M2 (setting [11]), 7%; on Vasopressin V1A (setting [12]), 16%.

Turning to `O=C(/C=C/c1ccc(O)c(O)c1)O[C@H]1C[C@@](O)(C(=O)O)C[C@H](O)[C@@H]1O` [5-CQA, 5-O-caffeoylquinic acid], the inhibition at 30 µM on Cyclooxygenase COX-1 (setting [4]) was 2%; at Cyclooxygenase COX-2, 7%; on Monoamine Oxidase MAO-A (setting [5]), -5%; in experiment [1] (setting [6]) it was 8%; in [2] (setting [7]), -3%; on Histamine H2 (setting [8]), 0%. The inhibition at 30 µM is -10% in experiment [3] (setting [9]), 5% at Adrenergic α2A (setting [10]), -1% on Muscarinic M2 (setting [11]) and 0% on Vasopressin V1A (setting [12]).
